Measurements published in patent publication US11518758B2, “Heteroarylaminopyrimidine amide autophagy inhibitors and methods of use thereof” (Deciphera Pharmaceuticals, LLC, priority 2019, dated 2022).

Target: T1, ULK1 kinase (Homo sapiens, UniProt O75385, E37A/K38A)
T1 construct: (residues 1-283; ID NO: 2); purchased Beryllium
T1 sequence (O75385 1-283 E37A/K38A): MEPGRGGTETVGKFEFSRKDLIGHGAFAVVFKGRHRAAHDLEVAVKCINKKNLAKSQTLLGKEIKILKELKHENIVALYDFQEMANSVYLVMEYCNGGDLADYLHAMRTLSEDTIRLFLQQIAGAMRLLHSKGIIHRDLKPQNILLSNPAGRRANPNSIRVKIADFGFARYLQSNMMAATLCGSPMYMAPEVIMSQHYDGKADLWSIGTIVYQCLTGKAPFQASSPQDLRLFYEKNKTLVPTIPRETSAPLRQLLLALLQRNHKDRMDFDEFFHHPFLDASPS
Test: Biochemical assay for ULK1.3 (coupled pyruvate kinase/lactate dehydrogenase assay)
Conditions: 0.1 nM ULK1 (from Beryllium), peptide substrate, 1 mM ATP
Experimental: Example 175. Biochemical Assay for ULK1.3
Activity of ULK1 kinase was determined spectroscopically using a coupled pyruvate kinase/lactate dehydrogenase assay that continuously monitors the ATP hydrolysis-dependent oxidation of NADH (e.g., Schindler et al. Science (2000) 289: 1938-1942). Assays were conducted in 384-well plates (100 uL final volume) using 0.1 nM ULK1 (from Beryllium), 0.075 mM peptide substrate (YANWLAASIYLDGKKK (SEQ ID NO: 5)), 1.5 units pyruvate kinase, 2.1 units lactate dehydrogenase, 1 mM phosphoenol pyruvate, 0.28 mM NADH and 1 mM ATP in assay buffer (100 mM Tris, pH 7.5, 15 mM MgCl2, 0.5 mM DTT, 0.004% (w/v) BSA, and 0.004% Triton X-100). Inhibition of ULK1 was measured by adding serial diluted test compound (final assay concentration of 1% DMSO). A decrease in absorption at 340 nm was monitored continuously for 6 hours at 30° C. on a multi-mode microplate reader (BioTek). The reaction rate was calculated using the 2-3 h time frame. The reaction rate at each concentration of compound was converted to percent inhibition using controls (i.e. reaction with no test compound and reaction with a known inhibitor) and IC50 values were calculated using software routines in Prism (GraphPad software).

IC50 [nM] | Structure (SMILES)
1 to 25 | Cc1nn(C2CCN(C)CC2)cc1Nc1ncc(C(F)(F)F)c(NCCCN2CCOCCC2=O)n1 [Example 127]
1 to 25 | Cc1nn(C2CCN(C)CC2)cc1Nc1ncc(C(F)(F)F)c(NCCCN2CCCOCC2=O)n1 [Example 102]

Second part, the compound before the results:

Structure (SMILES) | IC50 [nM]
Cc1nn([C@H]2CCN(C)C2)cc1Nc1ncc(Br)c(NCCCN2CCCCC2=O)n1 [Example 61] | 25 to 100
Cc1nn(C2CCN(C(C)C)CC2)cc1Nc1ncc(C(F)(F)F)c(NCCCN2CCCOC2=O)n1 [Example 68] | 25 to 100

Target: T2, LRRK2 kinase (Homo sapiens, UniProt Q5S007)
T2 construct: purchased Thermo Fisher
T2 sequence (Q5S007 with tags, fused parts or gaps): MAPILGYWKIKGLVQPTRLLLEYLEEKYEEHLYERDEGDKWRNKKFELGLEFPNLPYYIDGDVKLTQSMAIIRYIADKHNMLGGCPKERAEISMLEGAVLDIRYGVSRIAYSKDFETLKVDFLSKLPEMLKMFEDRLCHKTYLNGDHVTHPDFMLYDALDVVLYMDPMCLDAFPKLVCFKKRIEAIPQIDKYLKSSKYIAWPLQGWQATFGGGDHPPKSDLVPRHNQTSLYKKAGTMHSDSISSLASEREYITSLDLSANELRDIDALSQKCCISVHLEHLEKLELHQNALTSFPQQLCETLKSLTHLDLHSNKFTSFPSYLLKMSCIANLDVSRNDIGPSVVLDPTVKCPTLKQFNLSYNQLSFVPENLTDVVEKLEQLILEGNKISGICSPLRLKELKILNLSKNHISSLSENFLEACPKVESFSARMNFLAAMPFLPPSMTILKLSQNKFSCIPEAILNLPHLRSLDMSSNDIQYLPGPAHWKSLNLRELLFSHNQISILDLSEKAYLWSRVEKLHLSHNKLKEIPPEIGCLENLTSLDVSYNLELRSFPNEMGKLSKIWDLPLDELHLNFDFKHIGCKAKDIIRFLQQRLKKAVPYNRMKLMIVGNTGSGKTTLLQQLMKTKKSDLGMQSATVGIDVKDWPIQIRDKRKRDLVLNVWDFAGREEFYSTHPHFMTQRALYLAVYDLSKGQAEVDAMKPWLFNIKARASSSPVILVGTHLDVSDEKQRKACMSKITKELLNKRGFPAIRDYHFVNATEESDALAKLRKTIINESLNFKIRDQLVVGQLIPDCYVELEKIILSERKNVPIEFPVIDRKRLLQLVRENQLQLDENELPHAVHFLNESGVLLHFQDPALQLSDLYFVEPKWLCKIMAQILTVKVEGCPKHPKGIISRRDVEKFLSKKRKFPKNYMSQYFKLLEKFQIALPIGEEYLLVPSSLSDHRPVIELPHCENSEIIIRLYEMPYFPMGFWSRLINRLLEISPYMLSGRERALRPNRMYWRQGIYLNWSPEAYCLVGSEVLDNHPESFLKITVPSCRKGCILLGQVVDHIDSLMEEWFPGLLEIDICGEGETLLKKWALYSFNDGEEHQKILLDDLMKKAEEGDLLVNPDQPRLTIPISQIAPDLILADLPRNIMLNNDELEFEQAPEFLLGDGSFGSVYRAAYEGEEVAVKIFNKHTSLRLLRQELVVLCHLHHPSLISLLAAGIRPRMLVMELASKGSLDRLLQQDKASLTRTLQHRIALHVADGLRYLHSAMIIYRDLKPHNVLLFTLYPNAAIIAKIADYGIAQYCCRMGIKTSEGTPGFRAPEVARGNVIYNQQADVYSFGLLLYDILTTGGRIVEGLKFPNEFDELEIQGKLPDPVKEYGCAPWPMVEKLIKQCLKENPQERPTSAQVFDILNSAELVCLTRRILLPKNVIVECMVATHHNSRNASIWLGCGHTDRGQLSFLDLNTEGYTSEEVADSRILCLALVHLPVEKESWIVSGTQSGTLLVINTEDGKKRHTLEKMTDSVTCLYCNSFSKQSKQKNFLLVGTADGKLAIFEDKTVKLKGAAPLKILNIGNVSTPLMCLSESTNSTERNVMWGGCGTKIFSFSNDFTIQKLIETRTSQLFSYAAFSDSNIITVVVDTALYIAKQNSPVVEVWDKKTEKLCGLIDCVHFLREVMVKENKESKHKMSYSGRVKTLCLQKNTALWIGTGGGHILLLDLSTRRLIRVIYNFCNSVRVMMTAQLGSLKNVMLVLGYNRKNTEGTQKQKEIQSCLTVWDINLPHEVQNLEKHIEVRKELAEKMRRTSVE
Test: Biochemical assay for LRRK2 (coupled pyruvate kinase/lactate dehydrogenase assay)
Conditions: 26.4 nM LRRK2 (residues 970-2528), 0.1 mM peptide substrate, 1 mM ATP

IC50 [nM] | Structure (SMILES)
100 to 300 | Cc1nn(C2CCN(C)CC2)cc1Nc1ncc(C(F)(F)F)c(NCCCN2CCCCC2=O)n1 [Example 8]
300 to 600 | CCN1CC[C@H](n2cc(Nc3ncc(Br)c(NCCCN4CCCCC4=O)n3)c(C)n2)C1 [Example 64]
